Experimental data from ChEMBL document CHEMBL5214910, “Rational Design of Dipicolylamine-Containing Carbazole Amphiphiles Combined with Zn2+ as Potent Broad-Spectrum Antibacterial Agents with a Membrane-Disruptive Mechanism” (J Med Chem, 2021).
In brackets after ≈: the same amount, converted by molar mass. Activity calls are given as the source filed them. The rule behind the calls is not given here.

Experiments:
Staphylococcus aureus [1] = assay: Antibacterial activity against Methicillin-resistant Staphylococcus aureus N315 assessed as inhibition of bacterial growth by measuring salt resistance incubated for 24 hrs in the presence of 12.5 ug/ml Zn2+ and 100 ug/ml Ca2+ by Muller hinton broth based dilution assay; format: functional
Acinetobacter baumannii [2] = assay: Antibacterial activity against Acinetobacter baumannii R2889 assessed as inhIbition of bacterial growth incubated for 24 hrs by Muller hinton broth based dilution assay; format: functional
Staphylococcus aureus [3] = assay: Antibacterial activity against Methicillin-resistant Staphylococcus aureus NCTC10442 assessed as inhibition of bacterial growth incubated for 24 hrs in the presence of 12.5 ug/mL Zn2+ by Muller hinton broth based dilution assay; format: functional
Escherichia coli [4] = assay: Antibacterial activity Escherichia coli ATCC 25922 assessed as inhibition of bacterial growth incubated for 24 hrs in the presence of 12.5 ug/mL Zn2+ by Muller hinton broth based dilution assay; format: functional
Acinetobacter baumannii [5] = assay: Antibacterial activity against Acinetobacter baumannii ATCC 17978 assessed as inhIbition of bacterial growth incubated for 24 hrs in the presence of 12.5 ug/mL Zn2+ by Muller hinton broth based dilution assay; format: functional
Escherichia coli [6] = assay: Antibacterial activity Escherichia coli ATCC 25922 assessed as inhibition of bacterial growth incubated for 24 hrs in the presence of 50 ug/mL Zn2+ by Muller hinton broth based dilution assay; format: functional
Escherichia coli [7] = assay: Antibacterial activity Escherichia coli ATCC 25922 assessed as inhibition of bacterial growth incubated for 24 hrs in the presence of 3.125 ug/mL Zn2+ by Muller hinton broth based dilution assay; format: functional
Escherichia coli [8] = assay: Antibacterial activity Escherichia coli ATCC 25922 assessed as inhibition of bacterial growth incubated for 24 hrs in the presence of […] ug/mL Zn2+ by Muller hinton broth based dilution assay; format: functional
Pseudomonas aeruginosa [9] = assay: Antibacterial activity Pseudomonas aeruginosa ATCC 9027 assessed as inhibition of bacterial growth incubated for 24 hrs in the presence of 6.25 ug/mL Zn2+ by Muller hinton broth based dilution assay; format: functional
Pseudomonas aeruginosa [10] = assay: Antibacterial activity Pseudomonas aeruginosa ATCC 9027 assessed as inhibition of bacterial growth incubated for 24 hrs in the presence of 0.78 ug/mL Zn2+ by Muller hinton broth based dilution assay; format: functional
Pseudomonas aeruginosa [11] = assay: Antibacterial activity Pseudomonas aeruginosa ATCC 9027 assessed as inhibition of bacterial growth incubated for 24 hrs in the presence of 0.39 ug/mL Zn2+ by Muller hinton broth based dilution assay; format: functional
Staphylococcus aureus [12] = assay: Antibacterial activity against Methicillin-resistant Staphylococcus aureus NCTC10442 assessed as inhibition of bacterial growth incubated for 24 hrs in the presence of 25 ug/mL Zn2+ by Muller hinton broth based dilution assay; format: functional
Staphylococcus aureus [13] = assay: Antibacterial activity against Methicillin-resistant Staphylococcus aureus NCTC10442 assessed as inhibition of bacterial growth incubated for 24 hrs in the presence of 0.78 ug/mL Zn2+ by Muller hinton broth based dilution assay; format: functional
Staphylococcus aureus [14] = assay: Antibacterial activity against Staphylococcus aureus ATCC 29213 assessed as inhibition of bacterial growth incubated for 24 hrs in the presence of 0.78 ug/mL Zn2+ by Muller hinton broth based dilution assay; format: functional
Staphylococcus aureus [15] = assay: Antibacterial activity against Staphylococcus aureus ATCC 29213 assessed as inhibition of bacterial growth by measuring salt resistance incubated for 24 hrs in the presence of 12.5 ug/ml Zn2+ and 3220 ug/ml Na+ by Muller hinton broth based dilution assay; format: functional
Staphylococcus aureus [16] = assay: Antibacterial activity against Staphylococcus aureus ATCC 29213 assessed as inhibition of bacterial growth by measuring salt resistance incubated for 24 hrs in the presence of 12.5 ug/ml Zn2+ and 100 ug/ml Ca2+ by Muller hinton broth based dilution assay; format: functional
Staphylococcus aureus [17] = assay: Antibacterial activity against Staphylococcus aureus ATCC 29213 assessed as inhibition of bacterial growth by measuring salt resistance incubated for 24 hrs in the presence of 12.5 ug/ml Zn2+ and 24.3 ug/ml Mg2+ by Muller hinton broth based dilution assay; format: functional
Staphylococcus aureus [18] = assay: Antibacterial activity against Methicillin-resistant Staphylococcus aureus N315 assessed as inhibition of bacterial growth by measuring salt resistance incubated for 24 hrs in the presence of 12.5 ug/ml Zn2+ and 3220 ug/ml Na+ by Muller hinton broth based dilution assay; format: functional
Staphylococcus aureus [19] = assay: Antibacterial activity against Methicillin-resistant Staphylococcus aureus N315 assessed as inhibition of bacterial growth by measuring salt resistance incubated for 24 hrs in the presence of 12.5 ug/ml Zn2+ and 175.5 ug/ml K+ by Muller hinton broth based dilution assay; format: functional
Staphylococcus aureus [20] = assay: Antibacterial activity against Methicillin-resistant Staphylococcus aureus N315 assessed as inhibition of bacterial growth by measuring salt resistance incubated for 24 hrs in the presence of 12.5 ug/ml Zn2+ and 24.3 ug/ml Mg2+ by Muller hinton broth based dilution assay; format: functional
Staphylococcus aureus [21] = assay: Antibacterial activity against Methicillin-resistant Staphylococcus aureus NCTC10442 assessed as inhibition of bacterial growth by measuring salt resistance incubated for 24 hrs in the presence of 12.5 ug/ml Zn2+ and 3220 ug/ml Na+ by Muller hinton broth based dilution assay; format: functional
Escherichia coli [22] = assay: Antibacterial activity against Escherichia coli ATCC 25922 assessed as inhibition of bacterial growth by measuring salt resistance incubated for 24 hrs in the presence of 12.5 ug/ml Zn2+ and 100 ug/ml Ca2+ by Muller hinton broth based dilution assay; format: functional
Escherichia coli [23] = assay: Antibacterial activity against Escherichia coli ATCC 25922 assessed as inhibition of bacterial growth by measuring salt resistance incubated for 24 hrs in the presence of 12.5 ug/ml Zn2+ and 24.3 ug/ml Mg2+ by Muller hinton broth based dilution assay; format: functional
Acinetobacter baumannii [24] = assay: Antibacterial activity against Acinetobacter baumannii ATCC 17978 assessed as inhibition of bacterial growth by measuring salt resistance incubated for 24 hrs in the presence of 12.5 ug/ml Zn2+ and 24.3 ug/ml Mg2+ by Muller hinton broth based dilution assay; format: functional
Staphylococcus aureus [25] = assay: Antibacterial activity against Staphylococcus aureus ATCC 29213 in cyclophosphamide immunosuppressed C57BL/6 mouse model of bacterial keratitis assessed as log reduction in viable bacterial count in infected cornea at 0.5 % pre-infected with bacteria for 24 hrs followed by topical administration of compound four times a day for 3 days in the presence of 12.5 ug/ml of Zn2+; format: functional; conditions: route top, time 3 day
Cell membrane [26] = assay: Disruption of cell membrane integrity in Escherichia coli ATCC 25922 assessed as increase in red fluorescence at 8 times of MIC measured for 2 hrs in the presence of 12.5 ug/ml Zn2+ by PI and SYTO staining based assay; format: subcellular
Lipopolysaccharide (LPS) [27] = assay: Displacement of BODIPY-TR-cadaverin from Pseudomonas aeruginosa Lipopolysaccharide at 1 times of MIC incubated for 30 mins by fluorescence based microplate reader analysis relative to control
Lipopolysaccharide (LPS) [28] = assay: Displacement of BODIPY-TR-cadaverin from Pseudomonas aeruginosa Lipopolysaccharide at 4 times of MIC incubated for 30 mins by fluorescence based microplate reader analysis relative to control
Cell membrane [29] = assay: Induction of outer membrane permeabilization in Escherichia coli ATCC 25922 assessed as increase in fluorescence intensity at 2 times to 8 times MIC measured for 1 hrs in the presence of 12.5 ug/ml Zn2+ by NPN uptake assay; conditions: DDE = dose-dependent effect

CC(C)=CCn1c2ccccc2c2c(OCC(O)CN(Cc3ccccn3)Cc3ccccn3)cccc21 (centres undefined)
MIC (Staphylococcus aureus [1]): 3.12 µg/mL
MIC (Acinetobacter baumannii [2]): 3.12 µg/mL (≈ 6.17 µM)
MIC (Staphylococcus aureus [3]): 1.56 µg/mL
MIC (Escherichia coli [4]): 1.56 µg/mL
MIC (Acinetobacter baumannii [5]): 0.78 µg/mL
MIC (Escherichia coli [6]): 1.56 µg/mL
MIC (Escherichia coli [7]): 3.12 µg/mL
MIC (Escherichia coli [8]): 6.25 µg/mL
MIC (Pseudomonas aeruginosa [9]): 3.12 µg/mL
MIC (Pseudomonas aeruginosa [10]): > 50 µg/mL
MIC (Pseudomonas aeruginosa [11]): > 50 µg/mL
MIC (Staphylococcus aureus [12]): 0.78 µg/mL
MIC (Staphylococcus aureus [13]): 1.56 µg/mL
MIC (Staphylococcus aureus [14]): 3.12 µg/mL
MIC (Staphylococcus aureus [15]): 1.56 µg/mL
MIC (Staphylococcus aureus [16]): 3.12 µg/mL
MIC (Staphylococcus aureus [17]): 1.56 µg/mL
MIC (Staphylococcus aureus [18]): 0.78 µg/mL
MIC (Staphylococcus aureus [19]): 0.78 µg/mL
MIC (Staphylococcus aureus [20]): 1.56 µg/mL
MIC (Staphylococcus aureus [21]): 1.56 µg/mL
MIC (Escherichia coli [22]): 6.25 µg/mL
MIC (Escherichia coli [23]): 3.12 µg/mL
MIC (Acinetobacter baumannii [24]): 1.56 µg/mL
log(activity) (Staphylococcus aureus [25]): 6.5
Activity (Cell membrane [26]): Active
Activity (Lipopolysaccharide (LPS) [27]): -0.28%
Activity (Lipopolysaccharide (LPS) [28]): -0.56%
Activity (Cell membrane [29]): Dde
